Key:
HEK293 cells = assay type: cell-based, human; conditions: for IFN induction by HIV-1-GFP from inhibitor-treated cGAS-reconstituted producer cells: 20 μM GW4869 or 60 μM Ac-DEVD-CHO during virus preparation; for IFN response in target cells in the presence of inhibitor: HEK293 cells infected with HIV-1-GFP from cGAS expressing cells, inhibitor 5 μM 1 hour prior to infection
IFNβ promoter reporter = assay type: cell-based, human; conditions: HEK293 cells transfected with 2 μg 2′-3′-cGAMP, 24 hours

Molecule: O=C(/C=C/c1ccc(/C=C/C(=O)Nc2ccc(C3=NCCN3)cc2)cc1)Nc1ccc(C2=NCCN2)cc1 [GW4869]
- IFN induction by HIV-1-GFP from inhibitor-treated cGAS-reconstituted producer cells (HEK293 cells): did not diminish IFN induction

Molecule: Nc1nc2c(ncn2[C@@H]2O[C@@H]3COP(=O)(O)O[C@H]4[C@@H](O)[C@H](n5cnc6c(N)ncnc65)O[C@@H]4COP(=O)(O)O[C@@H]2[C@@H]3O)c(=O)[nH]1 [cGAMP, 2′-3′-cyclic GMP-AMP]
- IFN induction in response to cGAMP (IFNβ promoter reporter) (IFNβ promoter reporter): induce IFN

Molecule: Cc1ccnc2c1NC(=O)c1cccnc1N2C1CC1 [nevirapine]
- IFN response in target cells in the presence of inhibitor (HEK293 cells): independent

Molecule: Cc1nnc(C(=O)NC(C)(C)c2nc(C(=O)NCc3ccc(F)cc3)c(O)c(=O)n2C)o1 [raltegravir]
- IFN response in target cells in the presence of inhibitor (HEK293 cells): independent

Molecule: Ac-DEVD-CHO
- IFN induction by HIV-1-GFP from inhibitor-treated cGAS-reconstituted producer cells (HEK293 cells): did not diminish IFN induction

Reference: patent publication US10010607B2, “Method for preparing viral particles with cyclic dinucleotide and use of said particles for inducing immune response” (priority 2014, dated 2018)
